The test system of data set [1] is BXPC-3. Briefly: Antitumor activity against human BXPC-3 cells xenografted in female BALB/cA nude mouse model assessed as suppression of tumor growth by measuring relative tumor proliferation rate at 38 mg/kg, iv measured after 24 days relative to control. The format is functional. The settings on record: time 24 day. (A xenograft is tissue or cells of one species grown in another, often human tumour cells in immunodeficient mice.)

Data set [2] can be described thus: Toxicity in female BALB/cA nude mouse assessed as appearance of fibrosis in heart at 15 mg/kg, iv measured after 24 hrs by H and E staining based analysis. It counts as organism-based. Conditions: in vivo.
A short description of data set [3]: Toxicity in female BALB/cA nude mouse assessed as damage in lung at 15 mg/kg, iv measured after 24 hrs by H and E staining based analysis. It counts as organism-based. The settings on record: in vivo.
Data set [4] can be described thus: Toxicity in female BALB/cA nude mouse assessed as appearance of fibrosis in lung at 15 mg/kg, iv measured after 24 hrs by H and E staining based analysis. It counts as organism-based. Conditions: in vivo.
Data set [5] in a line: Cmax in female BALB/c mouse at 15 mg/kg measured up to 5 hrs by HPLC analysis. It counts as ADME, organism-based. The settings on record: in vivo.
A further data set can be described thus: in vivo. Conditions: female, BALB/c, mouse, 15 mg/kg.
The test system of data set [6] is HCT-116. As to the kind of experiment: Antitumor activity against human HCT-116 cells xenografted in female BALB/cA nude mouse model assessed as relative tumor proliferation rate at 15 mg/kg, iv administered twice per week measured after 107 days. The format is functional, organism-based. Conditions: time 107.0 day.
Data set [7] in a line: Toxicity in female BALB/cA nude mouse assessed as mortality at 15 mg/kg, iv administered twice per week measured after 107 days. It counts as organism-based. Conditions: in vivo, 2568 h, time 107 day.
Data set [8] in a line: Toxicity in female BALB/cA nude mouse assessed as appearance of loss of alveolar architecture at 15 mg/kg, iv BID for 35 days by H and E staining based analysis. The format is organism-based. The settings on record: in vivo, 840 h, time 35 day.
In data set [9] the test system is HCT-116. Briefly: Antitumor activity against human HCT-116 cells xenografted in female BALB/cA nude mouse model assessed as relative tumor proliferation rate at 15 mg/kg, iv administered twice per week measured on 107 days relative to control. The format is functional. The settings on record: time 107 day.
Data set [10] can be described thus: Toxicity in female BALB/cA nude mouse assessed as necrosis in tumor tissue at 15 mg/kg, iv measured after 24 hrs by H and E staining based analysis. Conditions: in vivo. It counts as organism-based.
Data set [11] is described as follows: Toxicity in female BALB/cA nude mouse assessed as damage in heart at 15 mg/kg, iv measured after 24 hrs by H and E staining based analysis. Conditions: in vivo. It counts as organism-based.
Data set [12] in a line: Toxicity in female BALB/cA nude mouse assessed as effect on body weight loss at 15 mg/kg, iv administered twice per week measured after 107 days. The settings on record: in vivo, 2568 h, time 107 day. It counts as organism-based.
A short description of data set [13]: Prodrug release in female BALB/c nude mouse tumor assessed as (S)-4,11-diethyl-4,9-dihydroxy-1,12-dihydro-14H-pyrano[3',4':6,7]indolizino[1,2-b]quinoline-3,14(4H)-dione accumulation at 15 mg/kg measured after 1 hr by HPLC analysis. Conditions: in vivo. It counts as ADME, organism-based, Neoplasm.
The nature of data set [14]: Toxicity in female BALB/cA nude mouse assessed as appearance of alveolar wall thickening at 15 mg/kg, iv BID for 35 days by H and E staining based analysis. The format is organism-based. The settings on record: in vivo, 840 h, time 35 day.
A short description of data set [15]: Toxicity in female BALB/cA nude mouse assessed as pulmonary damage at 15 mg/kg, iv BID for 35 days by H and E staining based analysis. The format is organism-based. Conditions: in vivo, 840 h, time 35 day.
Data set [16] relates to BXPC-3. As to the kind of experiment: Antitumor activity against human BXPC-3 cells xenografted in female BALB/cA nude mouse model assessed as suppression of tumor growth by measuring relative tumor proliferation rate at 38 mg/kg, iv measured after 35 days. It counts as functional, organism-based. Conditions: time 35.0 day.

This note sets out measurements from ChEMBL document CHEMBL6134851, “Comparative Study on Covalent and Noncovalent Endogenous Albumin-Binding β-Glucuronidase-Activated SN38 Prodrugs for Antitumor Efficacy” (J Med Chem, 2025).

Active and inactive are the calls of the source. The calls are words filed in the database; no cut-off is given here.

A word on the Cmax: it is the maximum level reached in the sampled fluid or tissue. The AUC(0-t) is the area under the concentration-time curve up to a stated or last time point.

As for `CCc1c2c(nc3ccc(OC(=O)N4CCC(N5CCCCC5)CC4)cc13)-c1cc3c(c(=O)n1C2)COC(=O)[C@]3(O)CC` [IRINOTECAN], the Activity is 43.53% in the data set with BXPC-3 [1]; “Toxic” in data set [2]; “Toxic” in data set [3]; “Toxic” in [4]; “Non-toxic” in data set [7]; “Toxic” in data set [8]. The Activity with HCT-116 [9] is 50.36%; in data set [10], “Toxic”; in [11], “Toxic”; in [12], “Toxic”; in data set [14], “Toxic”; in [15] it was “Toxic”. This compound registered a Cmax in data set [5] of 3040 ng/mL. Besides, the AUC(0-t) at 5 h in the data set “in vivo” is 3120 ng·h/mL. The outcome with HCT-116 [6] and in the data set on BXPC-3 [16] was inactive. Besides, the Drug metabolism in data set [13] is 0.032 % ID/g.
